Measured values: ChEMBL document CHEMBL1201862, “PubChem BioAssay data set” (2004)
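Dose response: 5 concentrations. Exposure: 48 h. Format: 96-well plates. Endpoint: linear interpolation; highest concentration if not reached. GI50 = concentration required for 50% inhibition of growth.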 Activity calls are given as the source filed them. Cut-off read from the data, not from the text of the source: active = GI50 up to about 1.1 µM and inactive = higher.

Tests used:
Assay in all cases: NCI-60 cell line screen, 48 h
[1] = tested on: A549
[2] = tested on: SW-620
[3] = tested on: CCRF-CEM
[4] = tested on: ACHN
[5] = tested on: K562
[6] = tested on: TK-10
[7] = tested on: Malme-3M
[8] = tested on: OVCAR-3
[9] = tested on: CAKI-1
[10] = tested on: UACC-257
[11] = tested on: OVCAR-8
[12] = tested on: SK-MEL-2
[13] = tested on: MOLT-4
[14] = tested on: NCI-H460
[15] = tested on: SR
[16] = tested on: HOP-18
[17] = tested on: SF-295
[18] = tested on: BT-549
[19] = tested on: MDA-MB-435
[20] = tested on: T47D

Row | Compound | GI50 [1] | GI50 [2] | GI50 [3] | GI50 [4] | GI50 [5] | GI50 [6] | GI50 [7] | GI50 [8] | GI50 [9] | GI50 [10] | GI50 [11] | GI50 [12] | GI50 [13] | GI50 [14] | GI50 [15] | GI50 [16] | GI50 [17] | GI50 [18] | GI50 [19] | GI50 [20]
1 | COc1ccc2c(c1)C(=O)C1CC(=O)CCC21 (centres undefined) | > 100 µM (inactive) | > 100 µM (inactive) | > 100 µM (inactive) | > 100 µM (inactive) | > 100 µM (inactive) | > 100 µM (inactive) | > 100 µM (inactive) | > 100 µM (inactive) | > 100 µM (inactive) | > 100 µM (inactive) | > 100 µM (inactive) | > 100 µM (inactive) | > 100 µM (inactive) | > 100 µM (inactive) | > 100 µM (inactive) | > 100 µM (inactive) | > 100 µM (inactive) | – | – | –
2 | CCCCOC(=O)CNC(=O)OC/C=C/C#CC#C/C=C/COC(=O)NCC(=O)OCCCC | > 10 µM (inactive) | > 100 µM (inactive) | > 10 µM (inactive) | > 10 µM (inactive) | > 10 µM (inactive) | > 10 µM (inactive) | > 10 µM (inactive) | > 10 µM (inactive) | > 10 µM (inactive) | > 10 µM (inactive) | > 10 µM (inactive) | > 10 µM (inactive) | > 10 µM (inactive) | > 10 µM (inactive) | > 10 µM (inactive) | > 10 µM (inactive) | > 10 µM (inactive) | – | – | –
3 | CCNC(=O)COc1ccc(Cl)c(C)c1 | > 100 µM (inactive) | > 100 µM (inactive) | > 100 µM (inactive) | > 100 µM (inactive) | > 100 µM (inactive) | > 100 µM (inactive) | > 100 µM (inactive) | > 100 µM (inactive) | > 100 µM (inactive) | > 100 µM (inactive) | – | > 100 µM (inactive) | > 100 µM (inactive) | > 100 µM (inactive) | > 100 µM (inactive) | > 100 µM (inactive) | > 100 µM (inactive) | – | – | –
4 | CCCCCCCCOCC(O)COC (centres undefined) | > 100 µM (inactive) | > 100 µM (inactive) | > 100 µM (inactive) | > 100 µM (inactive) | 63.8 µM (inactive) | > 100 µM (inactive) | > 100 µM (inactive) | 94.6 µM (inactive) | > 100 µM (inactive) | 69.7 µM (inactive) | > 100 µM (inactive) | – | > 100 µM (inactive) | > 100 µM (inactive) | > 100 µM (inactive) | > 100 µM (inactive) | > 100 µM (inactive) | – | – | –
5 | COc1cc2cnc3c4cc(OC(C)C)c(OC)cc4ccc3c2cc1OC | > 100 µM (inactive) | > 100 µM (inactive) | > 100 µM (inactive) | > 100 µM (inactive) | > 100 µM (inactive) | > 100 µM (inactive) | > 100 µM (inactive) | > 100 µM (inactive) | > 100 µM (inactive) | > 100 µM (inactive) | > 100 µM (inactive) | > 100 µM (inactive) | > 100 µM (inactive) | > 100 µM (inactive) | – | > 100 µM (inactive) | > 100 µM (inactive) | – | – | –
6 | O=C(/C(=C/c1ccc(Cl)cc1)c1ccccc1)c1ccccc1 | – | 17.4 µM (inactive) | 32.4 µM (inactive) | 19.7 µM (inactive) | 27.4 µM (inactive) | 25.4 µM (inactive) | 17 µM (inactive) | – | – | 13.6 µM (inactive) | 20.3 µM (inactive) | 20.4 µM (inactive) | 17.8 µM (inactive) | 17.7 µM (inactive) | 19.9 µM (inactive) | 26.5 µM (inactive) | 18.8 µM (inactive) | – | – | –
7 | O=C(Cc1ccccc1)N/N=C(/c1nc2ccc([N+](=O)[O-])cc2nc1O)C(O)c1ccccc1Cl (centres undefined) | 80.2 µM (inactive) | 89.9 µM (inactive) | > 100 µM (inactive) | 56.6 µM (inactive) | > 100 µM (inactive) | > 100 µM (inactive) | > 100 µM (inactive) | – | 46.6 µM (inactive) | > 100 µM (inactive) | > 100 µM (inactive) | > 100 µM (inactive) | 70 µM (inactive) | > 100 µM (inactive) | > 100 µM (inactive) | > 100 µM (inactive) | > 100 µM (inactive) | – | – | –
8 | C/C(CN1C(=O)c2ccccc2C1=O)=N\NS(=O)(=O)c1cccc([N+](=O)[O-])c1 | > 100 µM (inactive) | > 100 µM (inactive) | > 100 µM (inactive) | > 100 µM (inactive) | > 100 µM (inactive) | > 100 µM (inactive) | > 100 µM (inactive) | > 100 µM (inactive) | > 100 µM (inactive) | > 100 µM (inactive) | > 100 µM (inactive) | > 100 µM (inactive) | > 100 µM (inactive) | > 100 µM (inactive) | – | > 100 µM (inactive) | > 100 µM (inactive) | – | – | –
9 | Cc1nc(Nc2ccc([N+](=O)[O-])cc2)sc1C(/C=C/c1ccc(N(C)C)cc1)=N/NC(=O)c1ccccc1 | 46.5 µM (inactive) | 45.6 µM (inactive) | 38.3 µM (inactive) | 39.6 µM (inactive) | 18.5 µM (inactive) | 52.8 µM (inactive) | 70 µM (inactive) | > 100 µM (inactive) | > 100 µM (inactive) | 82.2 µM (inactive) | > 100 µM (inactive) | 92 µM (inactive) | 41.9 µM (inactive) | 59.6 µM (inactive) | 41.7 µM (inactive) | 72.8 µM (inactive) | 56 µM (inactive) | – | – | –
10 | Cc1c(Cl)cccc1N1C(=O)C(Cl)=C(Cl)C1=O | > 100 µM (inactive) | > 58.2 µM (inactive) | 16.4 µM (inactive) | > 100 µM (inactive) | 17.9 µM (inactive) | > 100 µM (inactive) | > 100 µM (inactive) | > 100 µM (inactive) | > 51.8 µM (inactive) | > 100 µM (inactive) | > 100 µM (inactive) | > 100 µM (inactive) | 17.1 µM (inactive) | > 100 µM (inactive) | 34.2 µM (inactive) | > 100 µM (inactive) | > 100 µM (inactive) | – | – | –
11 | COc1ccc(/C(C#N)=C(/N)SCc2ccccc2Cl)cc1 | 26.4 µM (inactive) | 16.1 µM (inactive) | 27.9 µM (inactive) | > 10 µM (inactive) | 18.5 µM (inactive) | 32.1 µM (inactive) | 17.5 µM (inactive) | 11.1 µM (inactive) | – | 16.7 µM (inactive) | > 10 µM (inactive) | 16.5 µM (inactive) | 19.1 µM (inactive) | – | 25.2 µM (inactive) | 19.5 µM (inactive) | 17.1 µM (inactive) | – | – | –
12 | CCOC(=O)c1cn(Cc2ccccc2)c(=O)n1Cc1ccccc1 | 75 µM (inactive) | > 100 µM (inactive) | 62.8 µM (inactive) | > 100 µM (inactive) | 52 µM (inactive) | > 100 µM (inactive) | > 100 µM (inactive) | > 100 µM (inactive) | 77.1 µM (inactive) | > 100 µM (inactive) | > 100 µM (inactive) | > 100 µM (inactive) | 35 µM (inactive) | > 100 µM (inactive) | – | > 100 µM (inactive) | 67.1 µM (inactive) | – | – | –
13 | CCC12CC[C@H](C#N)N3CCc4c(n(c5ccccc45)C(=O)C1)C32 (some centres undefined) | 15.9 µM (inactive) | 14.9 µM (inactive) | 12.3 µM (inactive) | > 10 µM (inactive) | 5.28 µM (inactive) | 16.4 µM (inactive) | 4.02 µM (inactive) | 13.3 µM (inactive) | 12.6 µM (inactive) | 14 µM (inactive) | 19.9 µM (inactive) | 14.1 µM (inactive) | 15 µM (inactive) | 13.3 µM (inactive) | – | < 0.01 µM (active) | 12.4 µM (inactive) | – | – | –
14 | CC(C)(O)[C@@H]1CC[C@@]2(C)CCCC(O)C2(O)C1 (some centres undefined) | > 100 µM (inactive) | > 100 µM (inactive) | > 100 µM (inactive) | > 100 µM (inactive) | > 100 µM (inactive) | > 100 µM (inactive) | > 100 µM (inactive) | > 100 µM (inactive) | > 100 µM (inactive) | > 100 µM (inactive) | > 100 µM (inactive) | > 100 µM (inactive) | > 100 µM (inactive) | > 100 µM (inactive) | > 100 µM (inactive) | > 100 µM (inactive) | > 100 µM (inactive) | – | – | –
15 | COc1cc(C=O)c(-c2cc3c(cc2C=O)OCO3)c(OC)c1OC | 93.8 µM (inactive) | 94.6 µM (inactive) | 88.1 µM (inactive) | > 290 µM (inactive) | 87.1 µM (inactive) | 210 µM (inactive) | 96.6 µM (inactive) | 56.6 µM (inactive) | 76.9 µM (inactive) | 123 µM (inactive) | 117 µM (inactive) | 65.6 µM (inactive) | 96.2 µM (inactive) | 103 µM (inactive) | 93.1 µM (inactive) | > 290 µM (inactive) | 70 µM (inactive) | – | – | –
16 | C[C@@H]1C[C@@H]([C@H](O)CC2CC(=O)NC(=O)C2)C(=O)[C@@H](C)C1 [CYCLOHEXIMIDE] | 0.0366 µM (active) | 0.0462 µM (active) | < 0.0186 µM (active) | 0.0291 µM (active) | 0.0528 µM (active) | 0.0865 µM (active) | 0.0889 µM (active) | 0.131 µM (active) | – | 0.0912 µM (active) | 0.044 µM (active) | 0.106 µM (active) | < 0.0176 µM (active) | 0.122 µM (active) | 0.0416 µM (active) | 0.249 µM (active) | 0.142 µM (active) | – | – | –
17 | Nc1ccc(S(=O)(=O)Nc2cnc3ccccc3n2)cc1 [SULFAQUINOXALINE] | > 100 µM (inactive) | > 100 µM (inactive) | > 100 µM (inactive) | > 100 µM (inactive) | > 100 µM (inactive) | > 100 µM (inactive) | > 96.6 µM (inactive) | > 100 µM (inactive) | > 100 µM (inactive) | > 100 µM (inactive) | > 100 µM (inactive) | > 52.1 µM (inactive) | > 100 µM (inactive) | > 100 µM (inactive) | > 100 µM (inactive) | > 100 µM (inactive) | > 100 µM (inactive) | > 100 µM (inactive) | > 100 µM (inactive) | > 100 µM (inactive)
